System: NCIH929.1 cells
Experiment: Cell viability assay (CellTiter-Glo 2.0, ATP quantification)
Type: cell-based
Settings: NCIH929.1 cell viability, CellTiter-Glo 2.0, 96 hr incubation, top concentration 1 μM
Protocol: Example 59. Cell Viability Assay
RPMI 1640 medium, fetal bovine serum (FBS) and 2-mercaptoethanol were purchased from Gibco (Grand Island, N.Y., USA). CellTiter-Glo® 2.0 Assay was purchased from Promega (Madison, Wis., USA). NCIH929.1 cell line was purchased from ATCC (Manassas, Va., USA). Cell culture flasks and 384-well microplates were acquired from VWR (Radnor, Pa., USA).
NCIH929.1 cell viability was determined based on quantification of ATP using CellTiter-Glo® 2.0 luminescent Assay kit, which signals the presence of metabolically-active cells. Briefly, the test compound was added to 384-well plates at a top concentration of 1 μM with 10 points, half log titration in duplicates. NCIH929.1 cells were seeded into the 384-well plates in RPMI medium containing 10% FBS and 0.05 mM 2-mercaptoethanol at a cell density of 750 cells per well. Cells treated in the absence of the test compound were the negative control and cells treated in the absence of CellTiter-Glo® 2.0 were the positive control. At the same day of compound treatment, CellTiter-Glo® 2.0 was added to a plate with cells treated in the absence of the test compound to establish Cytostatic control value (CT0). Cells treated with the test compound were incubated at 37° C. with 5% CO2 for 96 hr. CellTiter-Glo reagent was then added to the cells and luminescence was acquired on EnVision™ Multilabel Reader (PerkinElmer, Santa Clara, Calif., USA).

| SMILES | GI50 |
| --- | --- |
| [2H][C@@]1(N2C(=O)c3cccc(NCc4cnn(C5CCN(C(=O)OC(C)(C)C)CC5)c4)c3C2=O)CCC(=O)NC1=O (single isomer, unassigned) [Compound 185] | < 100 nM |
| [2H][C@]1(N2C(=O)c3cccc(NCc4cnn(C5CCN(C(=O)OC(C)(C)C)CC5)c4)c3C2=O)CCC(=O)NC1=O (single isomer, unassigned) [Compound 186] | < 100 nM |
| CC1(C(=O)N2CCC(n3cc(CNc4cccc5c4C(=O)N(C4CCC(=O)NC4=O)C5=O)cn3)CC2)CC1(Cl)Cl (stereo in doubt) [Compound 182, 4-(((1-(1-((R)-2,2-Dichloro-1-methylcyclopropane-1-carbonyl)piperidin-4-yl)-1H-pyrazol-4-yl)methyl)amino)-2-(2,6-dioxopiperidin-3-yl)isoindoline-1,3-dione] | < 100 nM |
| CC1(C(=O)N2CCC(n3cc(CNc4cccc5c4C(=O)N(C4CCC(=O)NC4=O)C5=O)cn3)CC2)CC1(Cl)Cl (stereo in doubt) [Compound 183, 4-(((1-(1-((S)-2,2-Dichloro-1-methylcyclopropane-1-carbonyl)piperidin-4-yl)-1H-pyrazol-4-yl)methyl)amino)-2-(2,6-dioxopiperidin-3-yl)isoindoline-1,3-dione] | < 1 nM |
| COCCC(=O)N1CCC(n2cc(CNc3cccc4c3C(=O)N(C3CCC(=O)NC3=O)C4=O)cn2)CC1 (stereo not drawn) [Compound 6, 2-(2,6-dioxopiperidin-3-yl)-4-(((1-(1-(3-methoxypropanyl)piperidin-4-yl)-1H-pyrazol-4-yl)methyl)amino)isoindoline-1,3-dione] | < 100 nM |
| O=C1CCC(N2C(=O)c3cccc(NCc4cnn(C5CCN(C(=O)c6cnco6)CC5)c4)c3C2=O)C(=O)N1 (stereo not drawn) [Compound 7, 2-(2,6-dioxopiperidin-3-yl)-4-(((1-(1-(oxazole-5-carbnonyl)piperidin-4-yl)-1H-pyrazol-4-yl)methyl)amino)isoindoline-1,3-dione] | < 100 nM |
| CC(C)(C)CCC(=O)N1CCC(n2cc(CNc3cccc4c3C(=O)N(C3CCC(=O)NC3=O)C4=O)cn2)CC1 (stereo not drawn) [Compound 8, 4-(((1-(1-(4,4-dimethylpentanoyl)piperidin-4-yl)-1H-pyrazol-4-yl)methyl)amino)-2-(2,6-dioxopiperidin-3-yl)isoindoline-1,3-dione] | < 1 nM |
| CC(C)C(=O)N1CCC(n2cc(CNc3cccc4c3C(=O)N(C3CCC(=O)NC3=O)C4=O)cn2)CC1 (stereo not drawn) [Compound 9, 2-(2,6-dioxopiperidin-3-yl)-4-(((1-(1-isobutyrylpiperidin-4-yl)-1H-pyrazol-4-yl)methyl)amino)isoindoline-1,3-dione] | < 100 nM |
| O=C1CCC(N2C(=O)c3cccc(NCc4cnn(C5CCN(C(=O)C(F)F)CC5)c4)c3C2=O)C(=O)N1 (stereo not drawn) [Compound 10, 4-(((1-(1-(2,2-difluoroacetyl)piperidin-4-yl)-1H-pyrazol-4-yl)methyl)amino)-2-(2,6-dioxopiperidin-3-yl)isoindoline-1,3-dione] | < 100 nM |
| O=C1CCC(N2C(=O)c3cccc(NCc4cnn(C5CCN(C(=O)C6CCOCC6)CC5)c4)c3C2=O)C(=O)N1 (stereo not drawn) [Compound 11, 2-(2,6-dioxopiperidin-3-yl)-4-(((1-(1-(tetrahydro-2H-pyran-4-carbonyl)piperidin-4-yl)-1H-pyrazol-4-yl)methyl)amino)isoindoline-1,3-dione] | < 100 nM |
| CC(C)(C)CC(=O)N1CCC(n2cc(CNc3cccc4c3C(=O)N(C3CCC(=O)NC3=O)C4=O)cn2)CC1 (stereo not drawn) [Compound 12, 4-(((1-(1-(3,3-dimethylbutanoyl)piperidin-4-yl)-1H-pyrazol-4-yl)methyl)amino)-2-(2,6-dioxopiperidin-3-yl)isoindoline-1,3-dione] | < 100 nM |
| CCC(C)C(=O)N1CCC(n2cc(CNc3cccc4c3C(=O)N(C3CCC(=O)NC3=O)C4=O)cn2)CC1 (stereo not drawn) [Compound 13, 2-(2,6-dioxopiperidin-3-yl)-4-(((1-(1-(2-methylbutanoyl)piperidin-4-yl)-1H-pyrazol-4-yl)methyl)amio)isoindoline-1,3-dione] | < 100 nM |
| O=C1CCC(N2C(=O)c3cccc(NCc4cnn(C5CCN(C(=O)C6CCC6)CC5)c4)c3C2=O)C(=O)N1 (stereo not drawn) [Compound 14, 4-(((1-(1-(cyclobutanecarbonyl)piperidin-4-yl)-1H-pyrazol-4-yl)methyl)amino)-2-(2,6-dioxopiperidin-3-yl)isoindoline-1,3-dione] | < 100 nM |
| CO[C@H]1CC[C@H](C(=O)N2CCC(n3cc(CNc4cccc5c4C(=O)N(C4CCC(=O)NC4=O)C5=O)cn3)CC2)CC1 (stereo partly drawn) [Compound 15, 2-(2,6-dioxopiperidin-3-yl)-4-(((1-(1-((1r,4r)-4-methoxycyclohexane-1-carbonyl)piperidin-4-yl)-1H-pyrazol-4-yl)methyl)amino)isoindoline-1,3-dione] | < 100 nM |
| O=C1CCC(N2C(=O)c3cccc(NCc4cnn(C5CCN(C(=O)c6ccccc6)CC5)c4)c3C2=O)C(=O)N1 (stereo not drawn) [Compound 16, 4-(((1-(1-benzoylpiperidin-4-yl)-1H-pyrazol-4-yl)methyl)amino)-2-(2,6-dioxopiperidin-3-yl)isoindoline-1,3-dione] | < 100 nM |
| CCOCC(=O)N1CCC(n2cc(CNc3cccc4c3C(=O)N(C3CCC(=O)NC3=O)C4=O)cn2)CC1 (stereo not drawn) [Compound 17, 2-(2,6-dioxopiperidin-3-yl)-4-(((1-(1-(2-ethoxyacetyl)piperidin-4-yl)-1H-pyrazol-4-yl)methyl)amino)isoindoline-1,3-dione] | < 100 nM |
| O=C1CCC(N2C(=O)c3cccc(NCc4cnn(C5CCN(C(=O)Cn6cccn6)CC5)c4)c3C2=O)C(=O)N1 (stereo not drawn) [Compound 18, 4-(((1-(1-(2-(1H-pyrazol-1-yl)acetyl)piperidin-4-yl)-1H-pyrazol-4-yl)methyl)amino)-2-(2,6-dioxopiperidin-3-yl)isoindoline-1,3-dione] | < 100 nM |
| N#CCC(=O)N1CCC(n2cc(CNc3cccc4c3C(=O)N(C3CCC(=O)NC3=O)C4=O)cn2)CC1 (stereo not drawn) [Compound 19, 3-(4-(4-(((2-(2,6-dioxopiperidin-3-yl)-1,3-dioxoisoindolin-4-yl)amino)methyl)-1H-pyrazol-1-yl)piperidin-1-yl)-3-oxopropanenitrile] | < 100 nM |
| O=C1CCC(N2C(=O)c3cccc(NCc4cnn(C5CCN(C(=O)CC6CCCC6)CC5)c4)c3C2=O)C(=O)N1 (stereo not drawn) [Compound 20, 4-(((1-(1-(2-cyclopentylacetyl)piperidin-4-yl)-1H-pyrazol-4-yl)methyl)amino)-2-(2,6-dioxopiperidin-3-yl)isoindoline-1,3-dione] | < 100 nM |
| O=C1CCC(N2C(=O)c3cccc(NCc4cnn(C5CCN(C(=O)CCC6CC6)CC5)c4)c3C2=O)C(=O)N1 (stereo not drawn) [Compound 21, 4-(((1-(1-(3-cyclopropylpropanoyl)piperidin-4-yl)-1H-pyrazol-4-yl)methyl)amino)-2-(2,6-dioxopiperidin-3-yl)isoindoline-1,3-dione] | < 100 nM |
| O=C1CCC(N2C(=O)c3cccc(NCc4cnn(C5CCN(C(=O)C6CCCCC6)CC5)c4)c3C2=O)C(=O)N1 (stereo not drawn) [Compound 22, 4-(((1-(1-(cyclohexanecarbonyl)piperidin-4-yl)-1H-pyrazol-4-yl)methyl)amino)-2-(2,6-dioxopiperidin-3-yl)isoindoline-1,3-dione] | < 100 nM |
| CC(C)CCC(=O)N1CCC(n2cc(CNc3cccc4c3C(=O)N(C3CCC(=O)NC3=O)C4=O)cn2)CC1 (stereo not drawn) [Compound 23, 2-(2,6-dioxopiperidin-3-yl)-4-(((1-(1-(4-methylpentanoyl)piperidin-4-yl)-1H-pyrazol-4-yl)methyl)amino)isoindoline-1,3-dione] | < 1 nM |
| O=C1CCC(N2C(=O)c3cccc(NCc4cnn(C5CCN(C(=O)C6CC6)CC5)c4)c3C2=O)C(=O)N1 (stereo not drawn) [Compound 24, 4-(((1-(1-(cyclopropanecarbonyl)piperidin-4-yl)-1H-pyrazol-4-yl)methyl)amino)-2-(2,6-dioxopiperidin-3-yl)isoindoline-1,3-dione] | < 100 nM |
| O=C1CCC(N2C(=O)c3cccc(NCc4cnn(C5CCN(C(=O)Cc6ccc(F)cc6)CC5)c4)c3C2=O)C(=O)N1 (stereo not drawn) [Compound 25, 2-(2,6-dioxopiperidin-3-yl)-4-(((1-(1-(2-(4-fluorophenyl)acetyl)piperidin-4-yl)-1H-pyrazol-4-yl)methyl)amino)isoindoline-1,3-dione] | < 100 nM |
| O=C1CCC(N2C(=O)c3cccc(NCc4cnn(C5CCN(C(=O)CC6CC6)CC5)c4)c3C2=O)C(=O)N1 (stereo not drawn) [Compound 26, 4-(((1-(1-(2-cyclopropylacetyl)piperidin-4-yl)-1H-pyrazol-4-yl)methyl)amino)-2-(2,6-dioxopiperidin-3-yl)isoindoline-1,3-dione] | < 100 nM |
| O=C1CCC(N2C(=O)c3cccc(NCc4cnn(C5CCN(C(=O)CC6CCCCC6)CC5)c4)c3C2=O)C(=O)N1 (stereo not drawn) [Compound 27, 4-(((1-(1-(2-cyclohexylacetyl)piperidin-4-yl)-1H-pyrazol-4-yl)methyl)amino)-2-(2,6-dioxopiperidin-3-yl)isoindoline-1,3-dione] | < 1 nM |
| O=C1CCC(N2C(=O)c3cccc(NCc4cnn(C5CCN(C(=O)CC6CCOCC6)CC5)c4)c3C2=O)C(=O)N1 (stereo not drawn) [Compound 28, 2-(2,6-dioxopiperidin-3-yl)-4-(((1-(1-(2-(tetrahydro-2H-pyrazin-4-yl)acetyl)piperidin-4-yl)-1H-pyrazol-4-yl)methyl)amino)isoindoline-1,3-dione] | < 100 nM |

From patent US11753397B2, “Cereblon binders for the degradation of ikaros” (C4 Therapeutics, Inc., priority 2018, dated 2023)
